Experiments:
[1] = test system: transferrin Receptor (TfR) mRNA; test: TfR mRNA by qPCR in retina and RPE/choroid of wild type mice, oral deferiprone; format: in vivo, mouse; settings: 1 mg/ml in drinking water PO for 11 days, n=4, vs untreated
Experimental: FIG. 2 is two graphs showing relative quantification of transferrin Receptor (TfR) mRNA levels in the retinas and retinal pigment epithelia (RPE)/choroids of deferiprone treated and untreated wild type mice in retinas (FIG. 2A) and in RPE/choroids (FIG. 2B). The treated mice (n=4) were given deferiprone for 11 days PO (1 mg/ml in the drinking water). […] Relative quantification of TfR expression is also shown for the RPE/choroids (See FIG. 2B) of treated in comparison to untreated animals.

[2] = test system: Cp/Heph double knockout (DKO) mice; test: Retinal histology of Cp/Heph DKO mice given oral deferiprone in drinking water; format: in vivo, mouse
From the text: (§1) In the following examples, double knockout (DKO) mice were used where the mice were genetically modified to generate a deficiency in the ferroxidase ceruloplasmin (Cp) and its homologue hephaestin (Heph). These mice develop age-related retinal degeneration due to retinal iron accumulation, as do humans. Since the knockout affects all tissues and organs, they also develop other symptoms of localized iron excess, with a simultaneous inability to adequately utilize the available iron for normal homeostasis, such as making new hemoglobin (they have low hematocrits). These animals also develop neurological deficits, including ataxia and die at an early age, typically 6-9 months, although some may survive to 12 or 13 months with significant impaired ability to function The retinas of these Cp/Heph deficient mice accumulate iron in the RPE and photoreceptor outer segments in an age-dependent manner, then develop RPE and photoreceptor degeneration with subretinal neovascularization and sub-RPE wide-spaced collagen deposits. Cp/Heph DKO mice develop retinal, brain, liver, and heart iron overload with iron deficiency anemia. In untreated DKOs, iron gets trapped in the tissues and is not returned to the blood, leading to iron deficiency anemia. There is an age-dependent tissue iron buildup with retinal and brain degeneration.
(§2) Eye Drop Administration: Beginning at age 5 months (when elevated retinal iron levels are detected), mice were given deferiprone eye drops (10 mg/ml) three times a day in one eye and control water eye drops in the other eye for two months, with the last drop given 2 h prior to sacrifice. Eyes were fixed in 2% paraformaldehyde/2% glutaraldehyde then sectioned for analysis of morphology (following staining with Toluidine Blue) and iron content (following staining with Perls' Prussian Blue). The number and length of retinal pigment epithelial (RPE) cell hypertrophy and photoreceptor atrophy areas were quantified in deferiprone-treated vs. water-treated control eyes. The intensity of Perls' stain in the ciliary body, retina and RPE were assessed in digital photomicrographs quantifying pixel density.
Oral Administration: DKO mice were given deferiprone in their drinking water at a concentration of (1 mg/ml). The mice typically drink 5 ml of water a day and weigh 30 g. Mice began drinking deferiprone/water at age 7 months since that is the time such mice normally develop the retinal changes consistent with AMD. The animals were sacrificed at various time points that are known to represent significant retinal and neurological damage in untreated animals and the eyes of sacrificed animals were analyzed as noted above.

[3] = Hematocrit in DKO mice, oral deferiprone; format: in vivo, mouse
From the text: as §1, with “Cp/Heph DKO mice develop retinal, brain, liver, and heart iron overload with iron deficiency anemia. In untreated DKOs, iron gets trapped in the tissues and is not returned to the blood, leading to iron deficiency anemia. There is an age-dependent tissue iron buildup with retinal and brain degeneration.” left out
(§3) Oral Administration: DKO mice were given deferiprone in their drinking water at a concentration of (1 mg/ml). […] The animals were sacrificed at various time points that are known to represent significant retinal and neurological damage in untreated animals and the eyes of sacrificed animals were analyzed as noted above. […]

[4] = cited from earlier work
[5] = test system: Cp/Heph double knockout (DKO) mice; test: Survival (Kaplan-Meier) and ataxia of DKO mice, oral deferiprone; format: in vivo, mouse
From the text: FIG. 7 is a Kaplan-Meier survival curve for deferiprone treated and untreated DKO mice.
In the following examples, double knockout (DKO) mice were used where the mice were genetically modified to generate a deficiency in the ferroxidase ceruloplasmin (Cp) and its homologue hephaestin (Heph). These mice develop age-related retinal degeneration due to retinal iron accumulation, as do humans. Since the knockout affects all tissues and organs, they also develop other symptoms of localized iron excess, with a simultaneous inability to adequately utilize the available iron for normal homeostasis, such as making new hemoglobin (they have low hematocrits). […]
Oral Administration: DKO mice were given deferiprone in their drinking water at a concentration of (1 mg/ml). […] The animals were sacrificed at various time points that are known to represent significant retinal and neurological damage in untreated animals and the eyes of sacrificed animals were analyzed as noted above.
(P<0.0001). The lifespan of the treated animals is an under-estimate, as these mice were sacrificed for iron quantification before they became sick. […]

[6] = test system: eye of Hra:(NZW)SPF rabbits; test: Sensitivity testing of eye drops: ocular irritation/corrosion (Draize, sodium fluorescein); format: in vivo, rabbit
Experimental: The ocular irritation/corrosion potential of the product was assessed by instilling approximately 0.1 mL at a concentration of about 13 mg/mL into the everted lower lid of the right eye of 3 male Hra:(NZW)SPF rabbits; the left eye served as the untreated control. Approximately 24 hours after instillation, the treated eyes were examined for corneal injury and washed using room-temperature physiological saline.

[7] = test system: transferrin receptor messenger ribonucleic acid (TfR mRNA); test: TfR mRNA by qPCR in RPE/choroid after deferiprone eye drops; format: in vivo, mouse; settings: eye drops 10 mg/ml three times a day for two months, right eye treated vs left eye control
Experimental: FIG. 3 is a graph illustrating the amount of transferrin receptor messenger ribonucleic acid (TfR mRNA) in the RPE/choroid from a treated eye and an untreated eye. The error bars represent SD of 3 PCR reactions using the same batch of mRNA template.
as §2
The mouse had the right eye (OD) treated with deferiprone topically (in the form of the eye drops, 10 mg/ml) three times a day for two months, whereas the left eye (OS) was used as an internal control. The last administration was given 2 h prior to sacrifice. Relative quantification of TfR mRNA was detected by qPCR. […]

retinal iron = test: Perls' stain of retinal iron in DKO mice, oral deferiprone; format: in vivo; settings: 13 month old DKO mouse, PO 1 mg/ml in drinking water for 9 months, vs untreated DKO
From the text: FIG. 4 illustrates three Perls' stains of 7 and 13 month old untreated DKO mice retinas (FIGS. 4A and 4B, respectively) and of a treated 13 month old DKO mouse (FIG. 4C). The following abbreviations appear in the Figures: RPE, retinal pigment epithelium; ONL, outer nuclear layer; OPL, outer plexiform layer; IPL, inner plexiform layer; GCL, ganglion cell layer. Scale bar: 50 μm.
as §2, with “Eyes were fixed in 2% paraformaldehyde/2% glutaraldehyde then sectioned for analysis of morphology (following staining with Toluidine Blue) and iron content (following staining with Perls' Prussian Blue).” left out
as §3

For `Cc1c(O)c(=O)ccn1C` [deferiprone], the “TfR mRNA levels in retinas (relative quantification, standardized to 18S RNA)” value [1] was “significant up regulation of TfR mRNA levels”, the “TfR expression in RPE/choroids (relative quantification)” value ([1]; P<0.05) was “significant difference” and the “retina appearance (toluidine blue plastic sections)” value ([2]; 14 month Cp/Heph knockout, oral deferiprone for 5 months, FIG. 1) was “appears normal except for a few mildly hypertrophic RPE cells”. The “retinal degeneration and damage” value ([2]; DKO mice 12-14 months old, deferiprone 1 mg/ml in drinking water for 5-7 months) was “almost no retinal degeneration and damage”, the retinal tissue histology ([2]; DKO mice, deferiprone 1 mg/ml PO in drinking water for 6-9 months, FIG. 5) was “near normal tissue” and the “areas of RPE hypertrophy, share of the retina involved” value ([2]; most severely affected regions, DKO mice, deferiprone 1 mg/ml PO for 6-9 months, untreated more than 90%) was less than 10%. For the same compound, the “hematocrit, mean value” ([3]; deferiprone-treated DKO mice n=7, untreated mean 24.6%, P<0.05) was 36.7%, the “hematocrit at time of sacrifice” value ([3]; treated DKO mice 12 and 14 months old, 1 mg/ml in drinking water 5-7 months, untreated 19-26%) was 30-50% and the half life ([4]; humans) was “about 2 hours”. For the same compound, the “agranulocytosis, share of patients” value ([4]; thalassemia patients, oral doses 75 to 100 mg/kg/day) was “about 1%”, the ataxia ([5]; DKO mice, 1 mg/ml in drinking water, 2 mice at 14 months and 2 at 12 months) was “some mild ataxia” and the median survival ([5]; treated DKO mice, LogRank test, untreated 7 months, P<0.0001) was 13 months. The “eye irritation, Draize score” value ([6]; 0.1 mL of about 13 mg/mL into right eye of 3 male rabbits, 1, 24, 48 and 72 hours after instillation) was 0, the “corneal injury, sodium fluorescein test” value ([6]; about 24 hours post dose, about 13 mg/mL, rabbits) was “no injury to the cornea” and the “TfR mRNA in RPE/choroid (relative quantification)” value [7] was “siqnificant TfR mRNA increase”. For the same compound, the “retinal iron (Perls' stain)” value (retinal iron) was “decreased retinal iron”.

— patent US20130023569A1, “Use of Deferiprone for Treatment and Prevention of Iron-Related Eye Disorders” (THE TRUSTEES OF THE UNIVERSITY OF PENNSYLVANIA, priority 2009, published 2013)
